Where two headings read alike, the source gives them in different places.
Key:
Klebsiella pneumoniae [1] = assay: microbe, parasite or virus in culture; type: cell-based
Procedure: (§1) The first series of experiments involved the measurement of the amount of C02 evolved from aerobically growing cultures of the representative organism Klebsiella in the presence and absence of uncoupling agents. The known uncouplers 2, 4 dinitrophenol (DNP) and carbonyl cyanide m-chlorophenyl hydrazone (CCCP) were tested along with bis (tricholoromethyl) sulfone (TCMS) and beta-bromo-beta-nitrostyrene (BNS). It can be seen from the data that CCCP caused large increases in C02 evolution over the untreated controls at all concentrations used, with the largest increase (29%) at 5 µg/mL (24.4 uM). […] Bacterial counts also reflected the lack of uncoupling activity. […] Largest increase in C02 blowoff came at 50 ppm (32%). BNS gave a mixed pattern as opposed to those of DNP and CCCP. […] Even at 10 µg/mL, the bacterial count was reduced ~ 50% while still giving greater C02 blowoff than control cultures.
The procedure utilized to perform the first series of experiments was as follows: • Sealed vials containing 8 mL of minimal salts medium (Composition: K2HPO4-39, KH2PO4-lg, MgSO4-0.2g, (NN4)2SO4^-1g, D-glucose-5g (optional) in 1 liter. Autoclave and adjust pH to 6.8) lacking any carbon source were each injected with 1 mL of a suspension of Klebsiella pneumoniae. (Klebsiella was grown overnight, shaken at 37°C, in minimal salts medium containing glucose to a heavy cell suspension. The cells were centrifuged at 10,000 g and resuspended to a turbidity of 150 Klett units [Klett-Summerson photometer, #42 blue filter) in minimal salts medium [MSM], no glucose. These cells were again centrifuged, and resuspended in MSM at 1/10 the volume used previously. This 10X cell suspension was used as the standard inoculum for the vials.) The vials were- simultaneously injected with 1 mL of a 1 µ Ci/mL solution of ^14C-U-D glucose and the appropriate concentration of material to be tested. The compounds tested were fed at concentrations of […]. Controls received no test material and all vials were shaken during the course of the experiments at 37°C. Vials were read for C02 blowoff at the times indicated on the appropriate Tables. Standard bacterial counts were done on each vial after the end of each experimental series. [formula] [formula] [formula] [formula]

Klebsiella pneumoniae [2] = assay: Standard bacterial counts on the CO2 blowoff vials, first series; type: cell-based
Procedure: as §1
The procedure utilized to perform the first series of experiments was as follows: • Sealed vials containing 8 mL of minimal salts medium (Composition: K2HPO4-39, KH2PO4-lg, MgSO4-0.2g, (NN4)2SO4^-1g, D-glucose-5g (optional) in 1 liter. Autoclave and adjust pH to 6.8) lacking any carbon source were each injected with 1 mL of a suspension of Klebsiella pneumoniae. […] Vials were read for C02 blowoff at the times indicated on the appropriate Tables. […]

Klebsiella = assay: microbe, parasite or virus in culture; type: cell-based; conditions: Klebsiella, read-out: increase in C02 blowoff
Procedure: These patterns were the results of Klebsiella cultures having been grown on glucose (^14C-label). In nature, and in waste treatment facilities, many organic carbon compounds, both simple and complex, would be available for degradation. The known uncouplers and BNS were tested for their ability to increase C02 evolution from cultures exposed to the common substrates lactate, glycine, glycerol, and a denatured protein mixture. […] This was expected in the case of glycine but it was thought that a more complex protein might be degraded and portions used for some energyproduction. It was hoped that these compounds might be a more representative group (more abundant in waste treatment) than simple sugars for determining the extent of activity of BNS. […] Lactate, a common intermediate in microbial metabolism, and a compound which would normally be used as an oxidizable substrate for running the cytochrome chain, gave a more representative response. BNS treated cultures gave increased C02 blowoff (an increase as high as 130% at 5 µg/mL) as did both known uncouplers. […] When glycerol was used as the labeled substrate, BNS treated cultures gave increased C02 at concentrations up to 5 µg/mL.
The procedure used for determining the CO2 evolution was similar to the procedure described previously. Cells having been grown overnight in MSM and glucose were centrifuged and resuspended in MSM + glucose (cold) and used as inoculum. No other cold carbon source (unlabeled) was added. ^14C-labeled substrates (lactate, glycerol, etc.) obtained from New England Nuclear were used and supplied the radiolabeled carbon for the detection of ^14CO2. BNS was utilized in concentrations of 0.5 - 10 µg/mL. Fixed concentrations of 5 µg/mL CCCP and DNP were included for comparative purposes. The following data were obtained in these experiments.

E. coli K12 ATCC 25404 = assay: Batch culture biomass yield and glucose removal; type: cell-based, Escherichia coli
Procedure: Biomass determinations were by Millipore Filtration using Millipore type H.A. 0.45 µ filters. Samples were centrifuged @ 15,000 x for 10 min., supernatant was filtered through a dried and preweighed filter. The centrifuged pellet was then vortexed in 2 mL of D.I. water and filtered also. Samples were then dried overnight @ 105°C and re-weighed. Biomass was the weight of the dried filter less the tared filter weight.
Glucose determinations were carried out on the centrifuged reactor sample supernatants using glucose enzymatic assay (hexokinase and glucose 6-phosphate dehydrogenase) UV-15 Sigma Chemical Co., St. Louis, MO. (Assay set-up pamphlet accompanies kit). Spectrophotometric measurements were run on a Zeiss PM-6 Spektralphotometer, Carl Zeiss, 7082 Oberkochen, West Germany.
Escherichia coli K12 ATCC 25404 was grown to 175 K.U. (after 48 hours) on 10 g/1 dextrose, 75 mL/1 25x VBE, 5 mL/1 trace mixture. Ten mL of this culture was then used as seed for 300 mL of media of the same composition and dosed with varying concentrations of CCCP, myristic acid and salicylanilide.
Initial and 72 hour measurements for glucose and biomass were run by the previously described methods.

Saccharomyces cerevisiae = assay: Yeast-alcohol batch fermentation with uncoupler dosing; type: cell-based; conditions: 2.0 ppm CCCP
Procedure: Saccharomyces cerevisiae (Institute of Marine Sciences, U. Of Miami Culture Collection) was used in the following fermentation medium: 1% glucose, 13.4 g/1 yeast nitrogen Base (BBL, Cockeysville, MD), 0.5 g/1 sodium thioglycollate. pH was 5.68, temperature 33°C, agitation 8.5/10 on Fisher Versamix stirplate. CCCP was dosed at 2.0 mg/l.
Reaction vessel was a 3.0 liter working volume fermenter jar - New Brunswick Scientific. Temperature control was held by recirculation of a 33°C hot water bath through the reactor heating coils by a Little Giant Model 1 submergible pump (Little Giant Pump Co., Oklahoma City, OK).
Glucose and biomass determinations were made by the previously mentioned techniques. Ethanol determinations was by the alcohol dehydrogenase method 331-UV (Sigma Chemical Co., St. Louis, MO). Reactors were run for approximately 150 hours with sampling times varying throughout the experiment.

[3] = Escherichia coli, ATCC25404, 72 h, read-out: drop in biomass yield

With `N#CC(C#N)=NNc1cccc(Cl)c1` [CCCP, carbonyl cyanide m-chlorophenyl hydrazone] the activation at 5 µg/mL (Klebsiella pneumoniae [1]; Klebsiella pneumoniae, 5 µg/mL (24.4 uM), 14C-glucose, read-out: largest increase in C02 evolution over the untreated controls) was 29%, the bacterial counts (Klebsiella pneumoniae [2]; 50 µg/mL) was “the same as the control levels” and the activation at 5 µg/mL (Klebsiella; 14C-lactate as labeled substrate, 5 µg/mL) was 151%. The glucose removal efficiency (E. coli K12 ATCC 25404; 0.4 ppm, batch, 72 hour) was 100%, the “carbon (glucose) removal efficiency” value (E. coli K12 ATCC 25404; 1.0 ppm, batch, 72 hour) was 98.2% and the “drop of glucose removal efficiency from control” value (E. coli K12 ATCC 25404; 1.9 ppm, batch, 72 hour) was 4.8%. The glucose removal efficiency (E. coli K12 ATCC 25404; 1.9 ppm, batch, 72 hour) was 95.2%, the inhibition of growth at 0.4 ppm (E. coli K12 ATCC 25404; [3]) was 14.6% and the inhibition of growth at 1 ppm (E. coli K12 ATCC 25404; [3]) was 28%. For the same molecule, the inhibition of growth at 1.9 ppm (E. coli K12 ATCC 25404; [3]) was 42.7%, the “g ETOH formed hr. max.” value (Saccharomyces cerevisiae) was 0.45 and the “g ETOH formed hr. max., change vs Control” value (Saccharomyces cerevisiae) was “+41.6%”. For the same molecule, the “g glucose consumed/hr. max.” value (Saccharomyces cerevisiae) was 0.39, the “g glucose consumed/hr. max., change vs Control” value (Saccharomyces cerevisiae) was “+88%” and the “g cells mole glucosef” value (Saccharomyces cerevisiae; f = final) was 6.59. For the same molecule, the “g cells mole glucosef, change vs Control” value (Saccharomyces cerevisiae; f = final) was -44.1%, the “mole ETOH/Mole Glucosef g cells” value (Saccharomyces cerevisiae; f = final) was 4.02 and the “mole ETOH/Mole Glucosef g cells, change vs Control” value (Saccharomyces cerevisiae; f = final) was “+105.1%”. For the same molecule, the “moles ETOH/ mole glucosef*” value (Saccharomyces cerevisiae; f = final) was 1.39 and the “moles ETOH/ mole glucosef*, change vs Control” value (Saccharomyces cerevisiae; f = final) was “+9.4%”.

`O=[N+]([O-])c1ccc(O)c([N+](=O)[O-])c1` [DNP, 2, 4 dinitrophenol, reference compound] was tested, and the activation at 50 ppm (Klebsiella pneumoniae [1]; Klebsiella pneumoniae, read-out: Largest increase in C02 blowoff) was 32%, the minimal effective concentration (Klebsiella pneumoniae [1]; Klebsiella pneumoniae, read-out: concentrations causing significant increases in C02 blowoff) was greater than 5 µg/mL and the “toxic effects (bacterial counts)” value (Klebsiella pneumoniae [2]; even at 50 ppm) was “no toxic effects”. It also gave an activation at 5 µg/mL (Klebsiella) of 83%.

With `CCCCCCCCCCCCCC(=O)O` [Myristic acid, myristic acid] the inhibition of growth at 25 ppm (E. coli K12 ATCC 25404; Escherichia coli, ATCC25404, 25 ppm, batch, 72 hour, read-out: reduction in biomass yield) was 19.5% and the “inhibitory effects on glucose removal” value (E. coli K12 ATCC 25404; up to 25 ppm, batch, 72 hour) was “no inhibitory effects”.

Molecule `O=C(Nc1ccccc1)c1ccccc1O` [Salicylanilide, salicylanilide] has a glucose removal efficiency (E. coli K12 ATCC 25404; 50.5 ppm, batch, 72 hour) of 99.7% and an inhibition of growth at 50.5 ppm (E. coli K12 ATCC 25404; Escherichia coli, ATCC25404, 50.5 ppm, batch, 72 hour, read-out: drop in biomass yield) of no more than 40.2%.

In the case of `O=S(=O)(C(Cl)(Cl)Cl)C(Cl)(Cl)Cl` [TCMS, bis (tricholoromethyl) sulfone], the “uncoupling property (C02 evolution)” value (Klebsiella pneumoniae [1]; all concentrations, 14C-glucose) is reported as “no uncoupling property”.
